Test system: d(CCG)8C (KR-2) (DNA, single strand) CCGCCGCCGCCGCCGCCGCCGCCGC
Test: tryptophan fluorescence quenching titration
Conditions: Na+ (0.01 M NaCl); 0.02 M Hepes, pH 7.5-7.7, 0.0001 M EDTA, 20 °C; half salt-reversal at 0.06 M Na+; weaker at higher NaCl

H-RWRWKL-NH2
binding: yes

From article PMC3493588 (2012)
